# Measured values as given in PMC11496081, “The diversity of AMPA receptor inhibition mechanisms among amidine-containing compounds” (Frontiers in Pharmacology, 2024).
# Where “and” joins values, the source holds several entries; their conditions need not be identical. Equal entries are not always repeated. Where two headings read alike, the source gives them in different places.
# Tests used:
# [1] = tested on: calcium-permeable AMPA receptors (CP-AMPARs); assay: Whole-cell patch clamp, block of kainate-induced currents in striatal giant interneurons; type: cell-based, rat
# Experimental: (§1) The rats were anesthetised with sevoflurane and then decapitated. […] All experiments were performed at room temperature.
# (§2) Pentamidine isethionate (P-155) was from Alomone laboratories.
# (§3) The voltage dependence of compounds action was analysed by Woodhull model for permeable blockers ([Woodhull, 1973]; [Tikhonova et al., 2008]). According to this model, the voltage dependence of steady-state blockade is given by Equation 1: BV=100%−100%/1+C/KbexpF/RT zδb V+Kp exp−F/RT zδp V (1) where V is voltage, B is level of block (%), C is concentration of the drug, z is molecular charge, and R, F and T have their standard meanings. Kb is the affinity of a drug for the channel. The δb value reflects the fraction of membrane electric field that the charged blocking molecule crosses on its pathway between the external media and the binding site in the channel (where the total field has a value of 1). Parameters Kp and δp describe permeation through the channel. […] For this reason, we used Equation 2, which takes into account the possibility of inhibitor to bind also at superficial site ([Nikolaev and Tikhonov, 2023]), assuming that the binding to the deep and superficial site is independent. BV=100%−100%/1+C/KbexpF/RT zδb V+Kp exp−F/RT zδp V+C/Kvin+C^2/Kvin KbexpF/RT zδb V+Kp exp−F/RT zδp V (2)
# (§4) All experimental data are presented as the mean ± SD estimated from at least four experiments (cells). Significance of the effects was tested with t-tests. Differences were considered significant at p < 0.05. Concentration dependencies were approximated by Hill equation. Voltage dependencies were approximated by Equation 1 or 2. […] Then all data was pooled together and the parameters of voltage dependence were estimated using the fitting of all measurements. For each holding potential ≥4 cells were used. Voltage dependence parameters (binding constants and δb values) are shown as the result of the fitting ± approximation errors.
# [2] = target: T1, calcium-impermeable AMPA receptors (CI-AMPARs) (Rattus norvegicus, UniProt P19490+P19491, Q607R); assay: Whole-cell patch clamp, kainate-induced currents in hippocampal CA1 pyramidal neurons; type: cell-based; details: for δb CI-AMPAR: fixed δb values obtained from the CP-AMPARs data; for inhibition at 200 µM: furamidine 50 µM
# T1 sequence (P19491 22-883 Q607R): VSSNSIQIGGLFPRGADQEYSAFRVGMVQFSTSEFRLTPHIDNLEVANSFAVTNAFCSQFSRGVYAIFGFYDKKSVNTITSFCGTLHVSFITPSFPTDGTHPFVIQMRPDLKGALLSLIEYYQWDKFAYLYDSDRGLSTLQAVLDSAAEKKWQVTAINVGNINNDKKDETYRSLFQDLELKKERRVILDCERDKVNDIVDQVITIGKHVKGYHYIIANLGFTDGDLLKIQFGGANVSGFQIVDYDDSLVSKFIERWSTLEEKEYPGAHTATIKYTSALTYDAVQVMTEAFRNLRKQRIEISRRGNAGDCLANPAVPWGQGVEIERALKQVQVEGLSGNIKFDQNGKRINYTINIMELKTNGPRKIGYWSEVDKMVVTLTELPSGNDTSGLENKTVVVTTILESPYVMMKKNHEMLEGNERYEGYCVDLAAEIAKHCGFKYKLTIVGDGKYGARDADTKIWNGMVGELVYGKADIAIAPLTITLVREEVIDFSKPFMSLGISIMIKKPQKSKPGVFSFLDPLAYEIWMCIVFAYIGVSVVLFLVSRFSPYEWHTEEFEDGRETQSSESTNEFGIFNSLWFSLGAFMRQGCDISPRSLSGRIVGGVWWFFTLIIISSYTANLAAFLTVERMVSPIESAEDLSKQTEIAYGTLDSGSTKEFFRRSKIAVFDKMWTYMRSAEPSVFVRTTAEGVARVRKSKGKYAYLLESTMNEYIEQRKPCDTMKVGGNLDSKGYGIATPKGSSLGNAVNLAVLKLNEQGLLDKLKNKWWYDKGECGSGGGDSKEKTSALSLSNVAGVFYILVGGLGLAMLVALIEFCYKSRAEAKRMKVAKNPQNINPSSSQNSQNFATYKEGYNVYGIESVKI
# T1 sequence (P19490 19-907): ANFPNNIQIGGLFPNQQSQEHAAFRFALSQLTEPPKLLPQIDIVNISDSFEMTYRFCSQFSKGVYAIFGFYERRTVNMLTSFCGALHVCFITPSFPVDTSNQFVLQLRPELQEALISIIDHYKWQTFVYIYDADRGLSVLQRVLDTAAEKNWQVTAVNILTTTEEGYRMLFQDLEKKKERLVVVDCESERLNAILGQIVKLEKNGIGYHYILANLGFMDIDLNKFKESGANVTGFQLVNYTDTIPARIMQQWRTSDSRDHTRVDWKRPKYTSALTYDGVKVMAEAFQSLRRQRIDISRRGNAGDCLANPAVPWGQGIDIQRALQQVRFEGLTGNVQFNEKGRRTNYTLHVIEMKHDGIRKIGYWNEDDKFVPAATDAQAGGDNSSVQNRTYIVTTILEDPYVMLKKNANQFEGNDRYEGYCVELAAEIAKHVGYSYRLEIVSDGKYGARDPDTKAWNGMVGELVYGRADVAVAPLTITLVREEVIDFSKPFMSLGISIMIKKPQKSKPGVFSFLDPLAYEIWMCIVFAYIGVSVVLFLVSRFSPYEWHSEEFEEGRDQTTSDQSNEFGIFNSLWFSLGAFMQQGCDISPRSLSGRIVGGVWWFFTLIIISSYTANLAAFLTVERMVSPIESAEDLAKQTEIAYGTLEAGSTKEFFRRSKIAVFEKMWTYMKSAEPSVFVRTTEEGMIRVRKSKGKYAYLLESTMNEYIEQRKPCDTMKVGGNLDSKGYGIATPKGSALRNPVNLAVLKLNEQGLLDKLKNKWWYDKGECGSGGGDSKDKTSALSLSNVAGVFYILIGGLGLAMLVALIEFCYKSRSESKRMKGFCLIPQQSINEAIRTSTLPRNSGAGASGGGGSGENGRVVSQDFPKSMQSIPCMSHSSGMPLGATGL
# Experimental: as §1, §2, §3, §4
# [3] = tested on: calcium-permeable AMPA receptors (CP-AMPARs); parameters: method as in Zhigulin et al., 2022; details: −80 mV, ref Zhigulin et al., 2022, cited from earlier work
# [4] = target: T1, calcium-impermeable AMPA receptors (CI-AMPARs); parameters: method as in Zhigulin et al., 2022; details: 100 µM compound, −80 mV; ref Zhigulin et al., 2022; cited from earlier work
# [5] = tested on: NMDA receptors; parameters: method as in Zhigulin and Barygin, 2023; details: ref Zhigulin and Barygin, 2023, cited from earlier work; for δb NMDAR / Kb: channel site; for Kb: read-out: Kb, μM NMDAR; for Kd: superficial site, read-out: Kvin, μM NMDAR; for IC50: read-out: IC50 at -80mV, μM NMDAR
# [6] = target: T1, calcium-impermeable AMPA receptors (CI-AMPARs); assay: Whole-cell patch clamp, glutamate-induced currents in hippocampal CA1 pyramidal neurons
# Experimental: The rats were anesthetised with sevoflurane and then decapitated. The brains were brought out quickly and cooled to 2°C–4°C. Transverse striatal or hippocampal slices were cut using a vibratome (Campden Instruments) and stored in a solution containing (in mM): NaCl 124, KCl 5, CaCl2 1.3, MgCl2 2.0, NaHCO3 26, NaH2PO4 1.24, D-glucose 10, aerated with carbogen (95% O2, 5% CO2). All experiments were performed at room temperature.
# Vibrodissociation method ([Vorobjev, 1991]; [Jun et al., 2011]) was used to free CA1 pyramidal neurons or giant striatal interneurons from slices. This method allows isolating cells without enzymatic treatment and keep them in more native state. […] The antagonism of CI-AMPARs was studied on pyramidal neurons from the CA1 area of the hippocampus. These cells were isolated from the stratum pyramidale and distinguished from non-pyramidal cells on the basis of pyramidal-like somata and preserved apical dendrites.
# To record membrane currents in response to applications of kainate or glutamate the whole-cell configuration of patch clamp technique was used. Series resistance (<20 MΩ) was compensated by 70%–80% and monitored during experiments. […]
# AMPA receptors were activated with 100 µM kainate or 1 mM glutamate unless otherwise stated. […] The effects of compounds on steady-state currents for different drug concentrations were measured at −80 mV holding voltages. […]
# [7] = voltage dependence fitted by eq. 1; read-out: Kb, µM CP-AMPARs (binding to channel site)
# [8] = voltage dependence −140 to +40 mV fitted by eq. 1
# [9] = 100 µM compound, kainate-induced current, −80 mV
# [10] = kainate-induced current, −80 mV; read-out: IC50, µM CP-AMPARs
# [11] = −80 mV; IEM-1925 1 µM, pentamidine 50 μM
Compound,"Kb [1, 7]","δb CP-AMPARs (fraction of membrane electric field to channel site) [1, 8]",δb CI-AMPAR [2],δb NMDAR [5],Kb [5],Kd [5],IC50 ([5]; −80 mV),"Block at 100 µM, % CP-AMPARs [1, 9]","IC50 [1, 10]",further results
N=C(N)c1ccc(/N=N/Nc2ccc(C(=N)N)cc2)cc1 [Diminazene],47 ± 5 µM,0.64 ± 0.05 and 0.65,0.65,0.55,1500 µM,14 µM,13 µM,,,"δb CP-AMPARs (fraction of membrane electric field to channel site) ([1]; voltage dependence −140 to +40 mV fitted by eq. 1; listed as diminazene): around 0.7; Block at 100 µM, % CP-AMPARs ([3]; 100 µM compound): 69 ± 4 %; IC50 [3]: 60 ± 11 µM; Block at 100 µM, % CI-AMPARs [4]: 31 ± 7 %"
N#Cc1ccccc1-c1cc(-c2ccccn2)cn(-c2ccccc2)c1=O [perampanel],,,,,,,,,,"inhibition of CP-AMPARs in presence of kainate ([1]; 100 nM perampanel): 50%–70%; inhibition at 0.1 µM ([2]; read-out: inhibition of kainate-induced CI-AMPAR currents in absence of cyclothiazide, 100 nM perampanel): 74%"
CCOC(=O)c1ccc(OC(=O)CCCCCNC(=N)N)cc1 [Gabexate],,,,0.55,800 µM,25 µM,16 µM,30 ± 4 (n=4) %,> 100 µM,
NS(=O)(=O)c1cc2c(cc1Cl)NC(C1CC3C=CC1C3)NS2(=O)=O (stereo not drawn) [cyclothiazide],,,,,,,,,,fold induction at 100 µM ([2]; read-out: increase in current at 50 µM kainate): 8 ± 2; fold induction at 100 µM ([2]; read-out: potentiation of responses evoked by 100 µM kainate): 6 ± 3; fold induction at 100 µM ([6]; read-out: enhancement of glutamate-induced currents): 12 ± 3
N=C(N)c1ccc(-c2ccc(-c3ccc(C(=N)N)cc3)o2)cc1 [Furamidine],,0.72 ± 0.15 and 0.7,0.7,0.55,22 µM,3.3 µM,0.64 µM,79 ± 7 (n=4) %,,"Block at 100 µM, % CP-AMPARs ([1]; 100 µM compound, kainate-induced current, −80 mV; listed as furamidine): 75–80%; IC50 ([1]; read-out: IC50, µM CP-AMPARs; kainate-induced current, −80 mV): 38 µM; Kb ([1]; read-out: Kb, µM CP-AMPARs (binding to channel site); voltage dependence fitted by eq. 1): 15 µM; δb CP-AMPARs (fraction of membrane electric field to channel site) ([1]; voltage dependence −140 to +40 mV fitted by eq. 1; listed as furamidine): around 0.7"
N=C(N)c1ccc2cc(OC(=O)c3ccc(NC4=NCCN4)cc3)ccc2c1 [Sepimostat],71 ± 9 µM,0.88 ± 0.12 and 0.9,0.9,0.55,102 µM,7 µM,3.5 µM,66 ± 5 (n=4) %,56 ± 6 µM,"inhibition remaining in trapping protocol after 10 s without kainate ([1]; 300 µM sepimostat): 21% ± 2%; recovery (washout) kinetics τ, CP-AMPARs ([1]; in presence of kainate): 1.5 ± 0.3 s; IC50 ([1]; kainate-induced current, −80 mV; listed as sepimostat; read-out: IC50, µM CP-AMPARs): ~55 µM; δb CP-AMPARs (fraction of membrane electric field to channel site) ([1]; voltage dependence −140 to +40 mV fitted by eq. 1; listed as sepimostat): ~0.9; inhibition at 100 µM ([2]; 100 µM compound, kainate-induced current, −80 mV, read-out: Block at 100 µM, % CI-AMPARs): 37 ± 3%"
CN(C)C(=O)COC(=O)Cc1ccc(OC(=O)c2ccc(NC(=N)N)cc2)cc1 [Camostat],,,,,,,> 100 µM,16 ± 4 (n=4) %,> 100 µM,"Block at 100 µM, % CP-AMPARs ([1]; 100 µM compound, kainate-induced current, −80 mV; listed as camostat): < 50%; IC50 at -80mV, μM NMDAR ([5]; −80 mV): ineffective"
N=C(N)c1ccc2cc(OC(=O)c3ccc(N=C(N)N)cc3)ccc2c1 [Nafamostat],9 ± 4 µM,0.76 ± 0.16 and 0.75,0.75,0.55,11 µM,3 µM,0.2 µM,60 ± 11 (n=4) %,55 ± 24 µM,"IC50 ([1]; kainate-induced current, −80 mV; listed as nafamostat; read-out: IC50, µM CP-AMPARs): ~55 µM; Kb ([1]; voltage dependence fitted by eq. 1; listed as nafamostat; read-out: Kb, µM CP-AMPARs (binding to channel site)): 5 to 10 µM; δb CP-AMPARs (fraction of membrane electric field to channel site) ([1]; voltage dependence −140 to +40 mV fitted by eq. 1; listed as nafamostat): around 0.7"
"N=C(N)c1ccc(-c2cc3ccc(C(=N)N)cc3[nH]2)cc1 [DAPI, 4′,6-diamidino-2-phenylindole]",5.4 ± 1.2 µM,,0.65,0.55,5000 µM,3.2 µM,3.1 µM,83 ± 4 (n=4) %,27 ± 1 µM,"Block at 100 µM, % CI-AMPARs [2, 9]: 64 ± 5 (n=6) %; Kb ([2]; fitted by eq. 2 with fixed δb values from CP-AMPARs data, read-out: Kb, µM CI-AMPARs (binding to channel site)): 24 ± 7 µM; Kd ([2]; fitted by eq. 2 with fixed δb values from CP-AMPARs data, read-out: Kvin, µM CI-AMPARs (binding to superficial site)): 62 ± 6 µM; IC50 ([2]; kainate-induced current, −80 mV): 59 ± 9 µM"
N=C(N)c1ccc(OCCCCCOc2ccc(C(=N)N)cc2)cc1 [Pentamidine],36 ± 4 µM,0.49 ± 0.04 and 0.5,0.5,0.7,27 µM,10 µM,0.41 µM,70 ± 4 (n=4) %,43 ± 9 µM,"washout kinetics τ of perampanel and pentamidine mixture ([1]; 100 nM perampanel + 500 µM pentamidine, in presence of kainate): 620 ± 470 ms; block of CP-AMPARs at +40 mV ([1]; 100 μM, +40 mV, representative example): 27%; block of CP-AMPARs at −40 mV ([1]; 100 μM, −40 mV, representative example): 78%; rectification index (current ratio between +40 mV and −40 mV) ([1]; 10 mM in pipette solution, kainate-induced responses): 0.10 ± 0.04; washout kinetics τ, CP-AMPARs ([1]; in presence of kainate): 120 ± 60 ms; inhibition at 100 µM ([2]; read-out: Block at 100 µM, % CI-AMPARs, 100 µM compound, kainate-induced current, −80 mV): 39 ± 5%; inhibition at 200 µM ([2]; read-out: block of CI-AMPARs with 50 µM kainate, −80 mV, pentamidine 200 µM, no cyclothiazide): 38%; inhibition at 200 µM ([2]; read-out: block of CI-AMPARs with 500 µM kainate, −80 mV, pentamidine 200 μM): 61%; remaining activity at 100 µM ([6]; read-out: Idrug/Icontrol, glutamate-induced steady-state current): 140 ± 10%"
IEM-1925,,,,,,,,,,"inhibition of CP-AMPARs with 50 µM kainate [1, 11]: 40% ± 3%; inhibition of CP-AMPARs with 500 µM kainate [1, 11]: 48% ± 5%"
